According to PubChem BioAssay AID248 (DTP/NCI, 2004):
Where “and” joins values, the source holds several entries; their conditions need not be identical. Equal values may be shown once. Toxic doses and inconclusive results are not listed. Cut-off read from the data, not from the text of the source: active = T/C of 150% or more; inactive = T/C below 125%.

System: L1210 leukemia ip in BDF1 mice, survival T/C
Assay: NCI In Vivo Anticancer Drug Screen. Data for tumor model L1210 Leukemia (intraperitoneal) in B6D2F1 (BDF1) mice
Conditions: endpoint: mean survival time, higher = longer survival
Method in brief: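 Transplanted-tumor mice were given test agent; controls received vehicle only. Survival readings from the two groups were divided (treated over control).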

[1] = dose: 50.0 mg/kg/injection, schedule: Q01DX001 (ip), vehicle: carboxymethylcellulose (CMC)
[2] = dose: 100.0 mg/kg/injection, schedule: Q01DX001 (ip), vehicle: carboxymethylcellulose (CMC)
[3] = dose: 200.0 mg/kg/injection, schedule: Q01DX001 (ip), vehicle: carboxymethylcellulose (CMC)
[4] = dose: 400.0 mg/kg/injection, schedule: Q01DX001 (ip), vehicle: carboxymethylcellulose (CMC)
[5] = dose: 100.0 mg/kg/injection, schedule: Q04DX002 (ip), vehicle: saline with Tween-80
[6] = dose: 200.0 mg/kg/injection, schedule: Q04DX002 (ip), vehicle: saline with Tween-80
[7] = dose: 400.0 mg/kg/injection, schedule: Q04DX002 (ip), vehicle: saline with Tween-80
[8] = dose: 100.0 mg/kg/injection, schedule: Q04DX003 (ip), vehicle: saline with Tween-80
[9] = dose: 200.0 mg/kg/injection, schedule: Q04DX003 (ip), vehicle: saline with Tween-80
[10] = dose: 100.0 mg/kg/injection, schedule: Q04DX002 (ip), vehicle: Klucel (hydroxypropylcellulose) (HPC)
[11] = dose: 200.0 mg/kg/injection, schedule: Q04DX002 (ip), vehicle: Klucel (hydroxypropylcellulose) (HPC)
[12] = dose: 400.0 mg/kg/injection, schedule: Q04DX002 (ip), vehicle: Klucel (hydroxypropylcellulose) (HPC)
[13] = dose: 50.0 mg/kg/injection, schedule: Q01DX009 (ip), vehicle: saline
[14] = dose: 100.0 mg/kg/injection, schedule: Q01DX009 (ip), vehicle: saline
[15] = dose: 100.0 mg/kg/injection, schedule: Q04DX003 (ip), vehicle: saline
[16] = dose: 200.0 mg/kg/injection, schedule: Q01DX009 (ip), vehicle: saline
[17] = dose: 200.0 mg/kg/injection, schedule: Q04DX003 (ip), vehicle: saline
[18] = dose: 100.0 mg/kg/injection, schedule: Q04DX003 (ip), vehicle: Klucel (hydroxypropylcellulose) (HPC)
[19] = dose: 200.0 mg/kg/injection, schedule: Q04DX003 (ip), vehicle: Klucel (hydroxypropylcellulose) (HPC)
[20] = dose: 400.0 mg/kg/injection, schedule: Q04DX003 (ip), vehicle: Klucel (hydroxypropylcellulose) (HPC)
[21] = dose: 400.0 mg/kg/injection, schedule: Q01DX009 (ip), vehicle: saline
[22] = dose: 100.0 mg/kg/injection, schedule: Q01DX001 (ip), vehicle: saline
[23] = dose: 200.0 mg/kg/injection, schedule: Q01DX001 (ip), vehicle: saline
[24] = dose: 400.0 mg/kg/injection, schedule: Q04DX003 (ip), vehicle: saline with Tween-80
[25] = dose: 25.0 mg/kg/injection, schedule: Q01DX009 (ip), vehicle: saline with Tween-80
[26] = dose: 50.0 mg/kg/injection, schedule: Q01DX009 (ip), vehicle: saline with Tween-80
[27] = dose: 200.0 mg/kg/injection, schedule: Q01DX009 (ip), vehicle: saline with Tween-80

Measured: T/C

CC(=O)Nc1ccc(/C=N\NC(=S)Nc2ccc3cn[nH]c3c2)cc1
inactive: [1] 100 % of control | [2] 97 % of control | [3] 103 % of control | [4] 97 % of control

Oc1c(Br)cc(Nc2c3ccccc3nc3ccccc23)cc1Br
inactive: [5] 100 % of control | [6] 95 % of control | [7] 100 % of control

CC(C)C(=O)[O][Pb]([CH3])([CH3])[CH3]
inactive: dose: 12.5 mg/kg/injection, schedule: Q04DX002 (ip), vehicle: saline 90 % of control

O=C1OC(=O)c2c(Br)cccc21
inactive: dose: 5.0 mg/kg/injection, schedule: Q04DX003 (ip), vehicle: Klucel (hydroxypropylcellulose) (HPC) 102 % of control | dose: 10.0 mg/kg/injection, schedule: Q04DX003 (ip), vehicle: Klucel (hydroxypropylcellulose) (HPC) 100 % of control | dose: 20.0 mg/kg/injection, schedule: Q04DX003 (ip), vehicle: Klucel (hydroxypropylcellulose) (HPC) 114 % of control

COc1c(O)cc2c(c1OC)-c1ccc(OC)c(=O)cc1C(NC=O)CC2 (stereo unspecified)
inactive: [8] 116 % of control | [9] 93 % of control

CSc1cc(C)c(O)c(C)c1
inactive: dose: 100.0 mg/kg/injection, schedule: Q01DX009 (ip), vehicle: other 98 % of control | dose: 200.0 mg/kg/injection, schedule: Q01DX009 (ip), vehicle: other 101 % of control

CN1C(=O)C(Br)=C(Br)C1=O
inactive: dose: 5.0 mg/kg/injection, schedule: Q01DX001 (ip), vehicle: saline 97 % of control | dose: 10.0 mg/kg/injection, schedule: Q01DX001 (ip), vehicle: saline 94 % of control

N#CCc1cc(Cl)ccc1OCC(=O)O
inactive: [10] 95 % of control | [11] 103 % of control | [12] 100 % of control

C[N+](C)(C)CCOC(=O)CCC(=O)OCC[N+](C)(C)C
inactive: dose: 1.56 mg/kg/injection, schedule: Q01DX009 (ip), vehicle: saline 94 % of control | dose: 3.12 mg/kg/injection, schedule: Q01DX009 (ip), vehicle: saline 94 % of control

COC(=O)C1C2CCC1(C)C(O)C2 (stereo unspecified)
inactive: dose: 75.0 mg/kg/injection, schedule: Q01DX009 (ip), vehicle: saline with Tween-80 96 % of control | dose: 150.0 mg/kg/injection, schedule: Q01DX009 (ip), vehicle: saline with Tween-80 107 % of control | dose: 300.0 mg/kg/injection, schedule: Q01DX009 (ip), vehicle: saline with Tween-80 100 % of control

CCCCN=CC(C)(C)NCCCC
inactive: [13] 95 % of control | [14] 90 % of control | [15] 106 % of control | [16] 88 % of control | [17] 104 % of control

Cc1cc(N(CCCl)CCCl)ccc1C=Nc1ccc(-c2csc(Cc3ccccc3)n2)cc1
inactive: [1] 105 % of control | [2] 103 % of control | [3] 116 % of control | [4] 97 % of control

CCOC(=O)C1C(=O)C(CN(CCCl)CCCl)C(=O)C(C(=O)OCC)C1c1ccc(O)cc1 (stereo unspecified)
inactive: dose: 100.0 mg/kg/injection, schedule: Q01DX009 (ip), vehicle: Klucel (hydroxypropylcellulose) (HPC) 113 % of control | [18] 106 % of control | dose: 200.0 mg/kg/injection, schedule: Q01DX009 (ip), vehicle: Klucel (hydroxypropylcellulose) (HPC) 112 % of control | [19] 110 % of control | dose: 400.0 mg/kg/injection, schedule: Q01DX009 (ip), vehicle: Klucel (hydroxypropylcellulose) (HPC) 110 % of control | [20] 114 % of control

Oc1ccccc1/C=N/Sc1ccccc1.Oc1ccccc1/C=N/Sc1ccccc1.[Cl][Pd][Cl]
inactive: dose: 12.5 mg/kg/injection, schedule: Q04DX002 (ip), vehicle: Klucel (hydroxypropylcellulose) (HPC) 90 % of control | dose: 25.0 mg/kg/injection, schedule: Q04DX002 (ip), vehicle: Klucel (hydroxypropylcellulose) (HPC) 101 % of control | dose: 50.0 mg/kg/injection, schedule: Q04DX002 (ip), vehicle: Klucel (hydroxypropylcellulose) (HPC) 111 % of control

CC1CC(=O)NC(=O)N1Cc1ccccc1 (stereo unspecified)
inactive: dose: 100.0 mg/kg/injection, schedule: Q01DX Z (ip), vehicle: methylcellulose (MC) 91 % of control | dose: 200.0 mg/kg/injection, schedule: Q01DX Z (ip), vehicle: methylcellulose (MC) 92 % of control

NC(N)=N/N=C/c1cccc(O)c1
inactive: dose: 63.0 mg/kg/injection, schedule: Q01DX Z (ip), vehicle: saline 112 % of control | dose: 125.0 mg/kg/injection, schedule: Q01DX Z (ip), vehicle: saline 102 % of control

CCOC(=O)C1(C(=O)OCC)C/C=C/CC(C(=O)OCC)(C(=O)OCC)C/C=C/C1
inactive: [14] 90 % of control | [15] 98 % of control | [16] 102 % of control | [17] 95 % of control | [21] 92 % of control | dose: 400.0 mg/kg/injection, schedule: Q04DX003 (ip), vehicle: saline 90 % of control

CCCCCCCCCCNC(=O)CI
inactive: [22] 100 % of control | [23] 94 % of control

CC1=C2C(=C[C@@](C)(CO)[C@@H]2O)C(=O)[C@](C)(O)C12CC2
inactive: dose: 75.0 micrograms/kg/injection, schedule: Q01DX Z (ip), vehicle: saline 103 % of control | dose: 150.0 micrograms/kg/injection, schedule: Q01DX Z (ip), vehicle: saline 117 % of control | dose: 300.0 micrograms/kg/injection, schedule: Q01DX Z (ip), vehicle: saline 117 % of control | dose: 600.0 micrograms/kg/injection, schedule: Q01DX Z (ip), vehicle: saline 100 % of control

CP1(=O)CC2OC2C1 (stereo unspecified)
inactive: [13] 96 % of control | [14] 89 % of control | [16] 93 % of control

O=[N+]([O-])c1cccc(C=Nc2cccc(Cl)c2)c1
inactive: [10] 96 % of control | [11] 100 % of control | [12] 100 % of control

N=C(N)Sc1cccc[n+]1[O-]
inactive: [22] 105 % of control | [23] 111 % of control

Cc1ccc(S(=O)(=O)OCCC2CCCCC2COS(=O)(=O)c2ccc(C)cc2)cc1 (stereo unspecified)
inactive: [14] 100 % of control | [18] 100 % of control | [16] 91 % of control | [19] 99 % of control | [21] 96 % of control | [20] 94 % of control

O=C(c1ccc(Cl)cc1)C(O)c1ccc(Cl)cc1 (stereo unspecified)
inactive: dose: 50.0 mg/kg/injection, schedule: Q01DX001 (ip), vehicle: saline 96 % of control | [22] 90 % of control | [8] 90 % of control | [23] 96 % of control | [9] 92 % of control | dose: 400.0 mg/kg/injection, schedule: Q01DX001 (ip), vehicle: saline 100 % of control | [24] 86 % of control

CCCCCCCCCCCCC(=O)N(CC)CC
inactive: [10] 87 % of control | [11] 94 % of control | [12] 94 % of control

CNC(=O)Oc1ccc(-c2ccccc2)cc1Cl
inactive: [25] 103 % of control and 106 % of control | [26] 94 % of control and 111 % of control | dose: 100.0 mg/kg/injection, schedule: Q01DX001 (ip), vehicle: saline with Tween-80 101 % of control | [5] 93 % of control and 101 % of control (2×) | [8] 98 % of control | dose: 200.0 mg/kg/injection, schedule: Q01DX001 (ip), vehicle: saline with Tween-80 93 % of control | [27] 94 % of control | [6] 96 % of control and 97 % of control and 100 % of control | [9] 95 % of control | dose: 400.0 mg/kg/injection, schedule: Q01DX001 (ip), vehicle: saline with Tween-80 104 % of control | [7] 103 % of control and 107 % of control and 113 % of control | [24] 98 % of control

C=CN(C=C)P(=O)(C1C(=O)C(C(=O)OCC)C(c2ccc(OC(C)=O)cc2)C(C(=O)OCC)C1=O)C1C(=O)C(C(=O)OCC)C(c2ccc(OC(C)=O)cc2)C(C(=O)OCC)C1=O (stereo unspecified)
inactive: [8] 97 % of control | [9] 96 % of control | [24] 100 % of control

COC(=O)c1ccccc1NC(=S)NC(=O)c1ccccc1F
inactive: [25] 93 % of control | [26] 92 % of control | [27] 91 % of control
